{
  "source": "paper PMC5570892",
  "about": "“Indole-based perenosins as highly potent HCl transporters and potential anti-cancer agents” (Scientific Reports, 2017)",
  "key": {"[1]": {"experiment": "Cl^−/NO3^− ISE assay in POPC:cholesterol (7:3) vesicles", "format": "biochemical", "details": "0.1 mol% loading, pH 7.2", "description": "To further probe other aspects of transmembrane transport mechanism of perenosins, a variety of studies were employed. […] Using the same conditions for sulfate transport, and adding a bicarbonate pulse at 120 s to give a final external bicarbonate concentration of 40 mM, allowed observation of potential Cl^−/HCO3 ^− antiport elicited by 1d and 2–8; no Cl^− efflux was detected, presumably due to the basicity of bicarbonate anion preventing protonation of the imine-N2. Finally, preincorporation of 1d and 2–6 into POPC vesicles followed by performing a similar NMDG-Cl assay, and subsequent dilution of the resulting lipid solution, investigated how perenosins behave in a lipid membrane environment. […] See Supplementary Information for more details of results and experimental details of these assays.\nS10. Anion Transport Studies\nS10.1. General Procedure for the ISE Assay\nUnilamellar vesicles were prepared using previously reported literature procedures7-9. A lipid film of POPC (1-palmitoyl-2-oleoyl-sn-glycero-3-phosphocholine) or POPC:cholesterol (7:3 molar ratio) was prepared from a chloroform solution under reduced pressure and then dried under vacuum for 4 or more hours. The lipid film was rehydrated by vortexing with an internal solution of buffered metal chloride salt (usually 489 mM MCl). The lipid suspension was then subjected to 9 freeze-thaw cycles and left to rest at room temperature for 30 minutes. After this, the suspension was extruded 25 times through a 200 nm polycarbonate membrane resulting in unilamellar vesicles of a mean diameter of 200 nm. […]\nThe lipid stock was diluted with the external buffer solution to a standard volume (5 mL), to afford a solution with a lipid concentration of 1 mM. The compounds were added as a DMSO solution (10 μL) at the start of the experiment and the resulting chloride efflux was monitored using a chloride selective electrode over 5 minutes. After this time, detergent (50 μL of Triton X-100 (11 w%) in H2O:DMSO (7:1 v/v)) was added to lyse the vesicles and after 7 minutes a final chloride efflux reading was taken. […]"}, "[2]": {"experiment": "pKa by UV spectrophotometric titration in POPC vesicles", "format": "physicochemical", "details": "apparent pKa in presence of POPC lipid bilayer, NaCl 500 mM, phosphate 5 mM", "excerpt": "The pK a at which protonation of the imine (N2, see Fig. 3) occurs gives an indication of the optimum pH for the binding of chloride anions. This is an important consideration in anti-cancer drug development as the external pH environment of cancer cells is mildly acidic (pH 6.7)[53] compared to that of healthy cells (pH 7.2–7.5)[54]. This can be exploited to selectively target cancer cells and potentially reduce the cytotoxic effects of perenosins when used as therapeutics for anti-cancer treatment. The apparent pK a values, shown in Table 1, for compounds 1d and 2–8 were determined both in aqueous solution (pK a (aq)) and in the presence of a 1-palmitoyl-2-oleoyl-sn-glycero-3-phosphocholine (POPC) lipid bilayer membrane (pK a (mem)). UV spectrophotometric titrations were conducted by varying the pH condition from neutral to acidic with the titration of either HPF6 or HCl.\nThe apparent pK a values were derived from nonlinear curve fitting of the absorbance plotted against the pH; global fitting of both wavelengths corresponding to the neutral and protonated species were performed whenever feasible, see Supplementary Information for details. […]\nAll spectra obtained have the increasing and decreasing peaks marked with an arrow.\nIsosbestic points were not observed in the titrations due to break down of the imine in acidic conditions. The breakdown product is shown, for all compounds, as the increasing absorbance peak […]\nS6.2 pKa Studies in Vesicles pKa values for compounds 1d, 2, 4, 5, 7 and 8 were determined experimentally in vesicles through a […]\nabsorbance between the UV -Vis spectra of the protonated and the neutral species. Unilamellar vesicles were prepared using previously reported literature procedures 7-9. A lipid film of POPC (1 - palmitoyl-2-oleoyl-sn-glycero-3-phosphocholine) was prepared from a chloroform solution under reduced pressure and then dried under vacuum for 4 or more hours. The lipid film was rehydrated by vortexing with a solution of phosphate buffered (5 mM) sodium chloride (500 mM). The lipid suspension was then subjected to 9 freeze-thaw cycles and left to rest at room temperature for 30 minutes. After this, the suspension was extruded 25 times through a 400 nm polycarbonate membrane resulting in unilamellar vesicles of a mean diameter of 400 nm. The titration solution was made up to a standard volume (2500 μL, 1 mM) with the lipid (615 μL), phosphate buffered (5 mM) sodium chloride (500 mM) solution ([…]) and a transporter solution (10 μL, 25 mM), and the pH of this was noted . The UV-Vis spectra were recorded on an Agilent Cary 100 UV-Vis spectrophotometer at 25 °C with baseline correction, using standard 10 mm quartz glass cells. A baseline absorbance was measured using a solution of lipid, phosphate buffered (5 mM) sodium chloride (500 mM) and DMSO, and then the absorbance of the titration solution was measured. The pH of the solution was decreased stepwise by adding small aliquots of hydrochloric acid (0.1 mM).\n(1 picture or pasted object on this page, not shown here)\nAfter each pH decrease an absorbance measurement was taken. The absorbance at a certain wavelength (shown for each compound below) was plotted against the pH and then fitted using a dose response curve in OriginPro 9.1, where the point of inflection corresponds to the apparent pKa […]\nFigure S44. Absorbance spectra taken over the course of a pH-spectrophotometric titration of 1d (25 mM) in a sodium chloride (500 mM) phosphate buffered (5 mM) lipid solution (1 mM). Inset: Abs vs. pH with dose response curve fit and the point of inflection corresponding to the p Ka value.\nFigure S45. Absorbance spectra taken over the course of a pH -spectrophotometric titration of 2 (25 […]\npH with dose response curve fit with the point o f inflection corresponding to the p Ka value. […]"}},
  "data": [
    {"molecule": "CCCCCc1cc(/N=C/c2[nH]c3ccccc3c2C)c2[nH]ccc2c1", "note": "[Perenosin 7]", "values": [
      {"measurement": "chloride efflux in POPC:Cholesterol (7:3) vesicles", "setting": "[1]", "result": "no chloride efflux"},
      {"measurement": "pK a (mem)", "setting": "[2]", "result": 5.07}
    ]},
    {"molecule": "CCCCCc1c(C)[nH]c(/C=N/c2cc(C)cc3cc[nH]c23)c1C", "note": "[Perenosin 5]", "values": [
      {"measurement": "pK a (mem)", "setting": "[2]", "result": 5.81}
    ]},
    {"molecule": "CCCCCc1cc2cc(C)cc(/N=C/c3[nH]c(C)cc3C)c2[nH]1", "note": "[Perenosin 2]", "values": [
      {"measurement": "chloride efflux in POPC:Cholesterol (7:3) vesicles", "setting": "[1]", "result": 70, "unit": "%"},
      {"measurement": "pK a (mem)", "setting": "[2]", "result": 5.85}
    ]},
    {"molecule": "CCCCCc1cc(/N=C/c2[nH]c(C)cc2C)c2[nH]ccc2c1", "note": "[Perenosin 1d]", "values": [
      {"measurement": "pK a (mem)", "setting": "[2]", "result": 5.42}
    ]},
    {"molecule": "CCCCCc1cc2cc(C)cc(/N=C/c3[nH]c4ccccc4c3C)c2[nH]1", "note": "[Perenosin 8]", "values": [
      {"measurement": "chloride efflux in POPC:Cholesterol (7:3) vesicles", "setting": "[1]", "result": "no chloride efflux"},
      {"measurement": "pK a (mem)", "setting": "[2]", "result": 5.62}
    ]},
    {"molecule": "CCCc1cc2cc(C)cc(/N=C/c3[nH]c(C)cc3C)c2[nH]1", "note": "[Perenosin 4]", "values": [
      {"measurement": "pK a (mem)", "setting": "[2]", "result": 6.12}
    ]}
  ]
}
